Experiment [1] deals with LPS-induced TNFα in monocytes. The experiment in a line: Monocytes assay: LPS-triggered TNFα (ELISA). The conditions noted are these: Homo sapiens, Monocyte, LPS-triggered TNFα inhibition. Type of experiment: cell-based, human. In a few lines:
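CD14+ monocytes were magnetically isolated from human buffy-coat PBMCs, preincubated with compound 1 h at 37 °C (0.2% DMSO), then stimulated with LPS at 200 ng/mL for 4 h. Supernatant TNFα was measured by luminescent sandwich ELISA; percentage inhibition was calculated against controls for each concentration.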
On the technique in general: In an ELISA, binding on a coated surface is turned into a signal by an enzyme label.

Experiment [2] addresses T1, SIK2 (Homo sapiens, UniProt Q9H0K1).
T1 construct: purchased ThermoFisher Scientific PV4792
The experiment in a line: ADP-Glo kinase assay, SIK2. Type of experiment: biochemical. An outline of the steps:
(§1)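 Luminescent ADP-formation read-out: enzyme–substrate mix + ATP, 120 min RT; ATP depletion 40 min RT; ADP→ATP conversion with luciferase/luciferin 30 min RT. Controls: 1% DMSO (negative), 10 μM staurosporine final (positive).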
(ADP-Glo first removes unused ATP, then detects ADP through luciferase.)

The target in experiment [3] is T2, SIK1 (Homo sapiens, UniProt P57059).
T2 construct: purchased Carna Biosciences 02-131
T2 sequence (P57059 whole entry): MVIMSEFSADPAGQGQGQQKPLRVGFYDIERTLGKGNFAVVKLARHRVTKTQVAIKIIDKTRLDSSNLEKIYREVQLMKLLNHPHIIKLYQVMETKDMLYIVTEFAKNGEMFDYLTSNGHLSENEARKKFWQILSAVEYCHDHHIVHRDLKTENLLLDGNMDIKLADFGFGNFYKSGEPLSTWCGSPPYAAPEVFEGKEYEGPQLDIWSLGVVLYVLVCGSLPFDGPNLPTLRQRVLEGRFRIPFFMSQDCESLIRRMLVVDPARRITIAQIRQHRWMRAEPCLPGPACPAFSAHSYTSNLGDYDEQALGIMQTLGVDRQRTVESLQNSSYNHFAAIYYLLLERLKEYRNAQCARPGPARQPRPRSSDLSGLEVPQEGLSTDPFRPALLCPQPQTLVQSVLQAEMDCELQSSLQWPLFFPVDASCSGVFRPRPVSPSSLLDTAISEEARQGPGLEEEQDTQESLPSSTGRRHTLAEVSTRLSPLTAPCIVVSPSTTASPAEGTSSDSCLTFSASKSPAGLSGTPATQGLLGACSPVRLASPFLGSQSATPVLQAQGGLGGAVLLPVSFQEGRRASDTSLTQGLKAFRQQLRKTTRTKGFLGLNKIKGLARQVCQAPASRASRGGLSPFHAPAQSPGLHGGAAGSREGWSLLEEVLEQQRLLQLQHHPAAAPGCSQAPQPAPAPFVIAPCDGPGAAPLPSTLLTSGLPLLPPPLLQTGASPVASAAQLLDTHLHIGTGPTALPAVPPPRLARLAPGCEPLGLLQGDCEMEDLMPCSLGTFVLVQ
The experiment in a line: ADP-Glo kinase assay, SIK1. The experiment is classed as biochemical. An outline of the steps:
as §1

Experiment [4] concerns the target T3, SIK3 (Homo sapiens, UniProt Q9Y2K2).
T3 construct: purchased SignalChem S12-11G-100
The experiment is described as follows: ADP-Glo kinase assay, SIK3. Type of experiment: biochemical. In a few lines: as §1

The test system of experiment [5] is LPS triggered IL-10 secretion in monocytes. The experiment is described as follows: Monocytes assay: LPS-triggered IL-10 (ELISA). Type of experiment: cell-based, human. The conditions noted are these: Homo sapiens, Monocyte, LPS-triggered IL-10 induction, median maximal fold change vs LPS only, read-out: IL-10 FCmax median. The procedure: This assay evaluates illustrative compounds of the invention for their inhibition of LPS-induced TNFα and LPS triggered IL-10 secretion in monocytes.
PBMCs are isolated from human blood samples (buffycoats). The buffy coat is aseptically transferred into a 50 mL Falcon tube, and diluted 1/2 in PBS. Falcon tubes are filled with 20 mL Lymphoprep™, on top of which 25 mL of the buffy coat is carefully added, tubes are centrifuged for 35 min at 400 g in temperature controlled centrifuge, without brake, at 25° C. PBMCs are aspirated from the white interface layer between sample and Lymphoprep™. PBMCs are washed five times in PBS.
PBMCs are centrifuged at 300×g for 10 min and resuspended at a density of 1.0*10^7 cells/80 μL Miltenyi buffer (PBS, pH 7.4, 1% FBS, 2 mM EDTA).
Starting from this point of the protocol all steps are performed on ice. 20 μL of CD14+ micro-beads are added per 1.0*10^7 cells, the tube is mixed and incubated for 15 min in the fridge at 4° C. Cell suspension volume is adjusted to total volume of 100 mL using Miltenyi buffer, mixed gently and subsequently centrifuged for 10 min at 300×g. Supernatant is discarded and cell pellet is resuspended in 12 mL of Miltenyi buffer.
Four LS columns are placed in the MACS Separator (magnet) from Miltenyi Biotec, and are prewet by rinsing with 3 mL of MACS buffer per column. Three mL of cell suspension is added onto the column (max 1*10^8 of labelled cells/column), and columns are subsequently washed 3 times with 3 mL of Miltenyi buffer.
The columns are removed from the magnets, and 5 mL of Miltenyi buffer are added to the column to flush out the CD14+ fraction by pushing the plunger into the column. The flushed fractions are collected in a fresh 50 mL Falcon and volume is adjusted to 30 mL using Miltenyi buffer, cells are centrifuged for 10 min at 300×g. The obtained cell pellet is resuspended in 10 mL RPMI w/o FBS, and cell density is determined using a hematologic analyser (Sysmex XS-500i).
A compound dilution plate is made in 100% DMSO by 3-fold dilution of 10 mM stock solution. An intermediate dilution plate (10× final concentration) is made by diluting the compound dilution plate 50-fold in RPMI medium.
10 μL of the 10× final concentration compound is added to the cells and incubated for 1 h at 37° C. before addition of trigger. No trigger conditions/trigger conditions are spiked with equal final DMSO concentrations of 0.2% DMSO. 10 μL of 10×LPS (final conc. 200 ng/mL) solution are added to all wells except for the ‘no trigger wells’ where 10 μL medium is added. Supernatant is collected after 4 h of LPS triggering.
A Lumitrac 600 Greiner 384-well plate is coated with 40 μL of capture antibody (final concentration of 1 μg/mL in 1×PBS) and stored overnight at 4° C. The next day the plate is washed three times with PBST (PBS+0.05% Tween20) and once with PBS followed by the addition of 100 μL of blocking buffer (1% BSA-5% Sucrose) and plates are sealed and incubated for at least 4 h at RT. After washing the plate once with PBST and once with PBS, 40 μL of standard or sample are added (IL-10 standard curve is prepared using a 1/2 serial dilution starting from 2000 pg/mL; dilutions are made in dilution buffer (PBS+1% BSA)). […] Plates are washed twice with PBST, and once with PBS, whereafter 35 μL of Strep-HRP conjugate (0.5 μg/mL final concentration diluted in dilution buffer) is added. Plates are incubated in the dark, at RT for at least 45 min but no longer than 1 h. Plates are washed twice with PBST, and once with PBS. Thereafter, 50 μL of luminol substrate is added to each well (prepared according to manufacturer's instructions), and incubated for 5 min at RT protected from light.
To quantify these increases, fold changes (FC) compared to ‘LPS only’ are calculated for each concentration tested and the maximal FC is calculated (IL-10 FCmax): […]

Where [6] appears, read: ADP-Glo, AMARA 45 μM, 5 μM ATP, 120 min, average IC50.

Usually EC50 stands for the concentration giving half of the maximal effect. Higher therefore signals a less potent agent. One may read the IC50 as the concentration that gives 50% inhibition. Higher therefore signals weaker potency.

Read-outs that look alike come from different tables or passages of the source. Some results are limits rather than exact numbers.

T3 sequence (Q9Y2K2 59-365 limits assumed): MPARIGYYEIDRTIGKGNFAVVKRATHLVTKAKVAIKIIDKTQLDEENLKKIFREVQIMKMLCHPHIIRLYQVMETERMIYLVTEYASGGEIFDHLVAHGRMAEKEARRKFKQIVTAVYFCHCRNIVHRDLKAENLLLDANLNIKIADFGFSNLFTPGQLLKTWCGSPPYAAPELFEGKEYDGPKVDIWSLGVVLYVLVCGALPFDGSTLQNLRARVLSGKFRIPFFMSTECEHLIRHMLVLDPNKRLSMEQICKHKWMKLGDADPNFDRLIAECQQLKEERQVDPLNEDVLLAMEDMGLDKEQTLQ
T1 sequence (Q9H0K1 whole entry): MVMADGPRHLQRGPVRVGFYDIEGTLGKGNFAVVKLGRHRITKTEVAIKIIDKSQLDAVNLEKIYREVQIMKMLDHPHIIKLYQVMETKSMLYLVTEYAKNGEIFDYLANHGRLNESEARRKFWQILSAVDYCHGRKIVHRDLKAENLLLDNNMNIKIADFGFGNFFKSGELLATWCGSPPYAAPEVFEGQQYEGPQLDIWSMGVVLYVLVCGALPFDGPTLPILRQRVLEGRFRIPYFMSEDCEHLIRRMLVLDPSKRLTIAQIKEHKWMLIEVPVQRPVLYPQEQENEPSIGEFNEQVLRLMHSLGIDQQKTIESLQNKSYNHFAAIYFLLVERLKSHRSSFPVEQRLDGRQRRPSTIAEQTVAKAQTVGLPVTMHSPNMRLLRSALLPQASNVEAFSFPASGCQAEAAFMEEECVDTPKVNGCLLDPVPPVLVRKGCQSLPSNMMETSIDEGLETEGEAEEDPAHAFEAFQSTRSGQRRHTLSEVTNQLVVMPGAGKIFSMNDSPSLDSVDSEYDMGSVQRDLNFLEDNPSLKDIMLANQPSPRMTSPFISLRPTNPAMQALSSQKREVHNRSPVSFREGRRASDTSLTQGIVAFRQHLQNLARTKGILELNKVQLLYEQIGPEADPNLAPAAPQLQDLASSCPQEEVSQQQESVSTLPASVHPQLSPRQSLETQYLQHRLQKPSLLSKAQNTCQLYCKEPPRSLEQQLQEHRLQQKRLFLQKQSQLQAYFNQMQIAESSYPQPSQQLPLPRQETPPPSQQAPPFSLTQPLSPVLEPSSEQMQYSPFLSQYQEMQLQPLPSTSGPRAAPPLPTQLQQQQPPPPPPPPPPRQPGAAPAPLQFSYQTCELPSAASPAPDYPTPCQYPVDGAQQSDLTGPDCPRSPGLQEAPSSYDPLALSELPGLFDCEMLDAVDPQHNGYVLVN

With `COc1cc(-c2cnc3cc(C(C)(C)C#N)ccn23)cc(OC(F)F)c1C(=O)N[C@@H]1C[C@H]1F` (racemic) [Cpd 225, 4-[7-(1-cyano-1-methyl-ethyl)imidazo[1,2-a]pyridin-3-yl]-2-(difluoromethoxy)-N-(2-fluorocyclopropyl)-6-methoxy-benzamide], the EC50 in experiment [1] lay in the range of 100 to 1000 nM. The IC50 was over 500 nM in experiment [2], over 500 nM in experiment [3] and 0.01 to 10 nM in experiment [4]. Moreover, in experiment [5], the maximal fold induction is under 1.5.
In the case of `COc1cc(-c2cnc3cc(C(C)(C)F)ccn23)cc(OC(F)F)c1C(=O)NC1CC1` [Cpd 133, N-cyclopropyl-2-(difluoromethoxy)-4-[7-(1-fluoro-1-methyl-ethyl)imidazo[1,2-a]pyridin-3-yl]-6-methoxy-benzamide], the EC50 in experiment [1] lay in the range of 100 to 1000 nM. Also, the IC50 in experiment [2] lay in the range of 100 to 500 nM; in experiment [3], 100 to 500 nM; in experiment [4], 10 to 100 nM. Besides, the maximal fold induction in experiment [5] is 1.5 to 4.5.
As for `COc1cc(-c2cnc3cc(C4(O)COC4)ccn23)cc(OC(F)F)c1C(=O)NC1CC1` [Cpd 177, N-cyclopropyl-2-(difluoromethoxy)-4-[7-(3-hydroxyoxetan-3-yl)imidazo[1,2-a]pyridin-3-yl]-6-methoxy-benzamide], the EC50 in experiment [1] fell in the range of 100 to 1000 nM. Further, the IC50 in experiment [2] is over 500 nM; in experiment [3], over 500 nM; in experiment [4] it was 10 to 100 nM. In addition, the maximal fold induction in experiment [5] was under 1.5.
Turning to `COc1cc(-c2cnc3cc(C(C)(O)Cn4ccnc4)ccn23)cc(OC(F)F)c1C(=O)NC1CC1` (stereo not shown) [Cpd 181, N-cyclopropyl-2-(difluoromethoxy)-4-[7-(1-hydroxy-2-imidazol-1-yl-1-methyl-ethyl)imidazo[1,2-a]pyridin-3-yl]-6-methoxy-benzamide], the EC50 in experiment [1] was in the range of 1000 to 5000 nM. In addition, the IC50 was over 500 nM in experiment [2], over 500 nM in experiment [3] and 10 to 100 nM in experiment [4]. In addition, in experiment [5], the maximal fold induction was under 1.5.
Take `COCC(C)(O)c1ccn2c(-c3cc(OC)c(C(=O)NC4CC4)c(OC(F)F)c3)cnc2c1` (stereo not shown) [Cpd 182, N-cyclopropyl-2-(difluoromethoxy)-4-[7-(1-hydroxy-2-methoxy-1-methyl-ethyl)imidazo[1,2-a]pyridin-3-yl]-6-methoxy-benzamide]: the EC50 in experiment [1] lay in the range of 100 to 1000 nM. The IC50 in experiment [2] was over 500 nM; in experiment [3] it was over 500 nM; in experiment [4], 10 to 100 nM. In addition, in experiment [5], the maximal fold induction was under 1.5.
Turning to `COc1cc(-c2cnc3cc(C4CCOCC4)c(OCCO)cn23)cc(OC(F)F)c1C(=O)NC1CC1` [Cpd 183, N-cyclopropyl-2-(difluoromethoxy)-4-[6-(2-hydroxyethoxy)-7-tetrahydropyran-4-yl-imidazo[1,2-a]pyridin-3-yl]-6-methoxy-benzamide], the EC50 in experiment [1] fell in the range of 1000 to 5000 nM. In addition, the IC50 was 100 to 500 nM in experiment [2], over 500 nM in experiment [3] and 10 to 100 nM in experiment [4]. Also, the maximal fold induction in experiment [5] is under 1.5.
Consider `COc1cc(-c2cnc3cc(C(C)(O)CN4CC(F)(F)C4)ccn23)cc(OC(F)F)c1C(=O)NC1CC1` (stereo not shown) [Cpd 191, N-cyclopropyl-4-[7-[2-(3,3-difluoroazetidin-1-yl)-1-hydroxy-1-methyl-ethyl]imidazo[1,2-a]pyridin-3-yl]-2-(difluoromethoxy)-6-methoxy-benzamide], for which, in experiment [1], the EC50 lay within 1000 to 5000 nM. The values for the IC50 in experiment [2], in experiment [3] and in experiment [4] were over 500 nM, over 500 nM and 10 to 100 nM, respectively. Further, the maximal fold induction in experiment [5] was under 1.5.
The compound `COc1cn2c(-c3cc(OC)c(C(=O)NC4CC4)c(OC(F)F)c3)cnc2cc1C(C)(C)C#N` [Cpd 200, 4-[7-(1-cyano-1-methyl-ethyl)-6-methoxy-imidazo[1,2-a]pyridin-3-yl]-N-cyclopropyl-2-(difluoromethoxy)-6-methoxy-benzamide] had an EC50 in experiment [1] of 100 to 1000 nM. Further, the IC50 was 100 to 500 nM in experiment [2], over 500 nM in experiment [3] and 10 to 100 nM in experiment [4]. Besides, the maximal fold induction in experiment [5] is under 1.5.
In experiment [1], `[2H]C([2H])([2H])C(C#N)(c1ccn2c(-c3cc(OC)c(C(=O)NC4CC4)c(OC(F)F)c3)cnc2c1)C([2H])([2H])[2H]` [Cpd 230, 4-[7-[1-cyano-2,2,2-trideuterio-1-(trideuteriomethyl)ethyl]imidazo[1,2-a]pyridin-3-yl]-N-cyclopropyl-2-(difluoromethoxy)-6-methoxy-benzamide] registered an EC50 of 100 to 1000 nM. For the same compound, the IC50 was 100 to 500 nM in experiment [2], over 500 nM in experiment [3] and 0.01 to 10 nM in experiment [4]. Also, the maximal fold induction in experiment [5] was under 1.5.
In experiment [1], `COCC(C)(C)c1ccc2c(-c3cc(OC)c(C(=O)NC4CC4)c(OC(F)F)c3)cnn2c1` [Cpd 238, N-cyclopropyl-2-(difluoromethoxy)-6-methoxy-4-[6-(2-methoxy-1,1-dimethyl-ethyl)pyrazolo[1,5-a]pyridin-3-yl]benzamide] displayed an EC50 of 100 to 1000 nM. The IC50 was over 500 nM in experiment [2], over 500 nM in experiment [3] and 10 to 100 nM in experiment [4]. In experiment [5], the maximal fold induction is under 1.5.
`COc1cc(-c2cnn3cc(C4COCCO4)ccc23)cc(OC(F)F)c1C(=O)N[C@@H]1C[C@@H]1F` (stereo partly drawn) [Cpd 240, 2-(difluoromethoxy)-4-[6-(1,4-dioxan-2-yl)pyrazolo[1,5-a]pyridin-3-yl]-N-[(1R,2S)-2-fluorocyclopropyl]-6-methoxy-benzamide] came in with an EC50 in experiment [1] of 100 to 1000 nM. For the same compound, the IC50 in experiment [2] (setting [6]) lay in the range of 10 to 100 nM; in experiment [3] (setting [6]), 100 to 500 nM; in experiment [4] (setting [6]) it was 0.01 to 10 nM. For the same compound, the maximal fold induction in experiment [5] lay in the range of 1.5 to 4.5.
